Results reported in patent US8658646B2, “Pyrrolopyrazine kinase inhibitors” (Hoffmann-LaRoche Inc., priority 2011, dated 2014).

Molecular target: T1, recombinant human SYK360-635 (Homo sapiens, UniProt P43405)
T1 construct: made in house
Assay: Determination of IC50 of Spleen Tyrosine Kinase (SYK) inhibition, 33P ATP filtration assay
Type: biochemical
Conditions: SYK aa 360-635 0.5 nM; ATP 20 μM, peptide 5 μM, 0.1% BSA; read-out: SYK_ENZYME_FILTRATION/v1, BSA

Row | SMILES | IC50
1 | Cn1c2c(c(-c3cnc4[nH]cc(C(=O)NC(C)(C)C)c4n3)[n+]1[O-])CCCC2 [Example I-294, 2-(1-Methyl-2-oxy-4,5,6,7-tetrahydro-1H-indazol-3-yl)-5H-pyrrolo[2,3-b]pyrazine-7-carboxylic acid tert-butylamide] | 4190 nM
2 | CC(C)(C)NC(=O)c1c[nH]c2ncc(-c3nn(CC4CNC4)c4ccc(OC(F)F)cc34)nc12 [Example I-350, 2-(1-Azetidin-3-ylmethyl-5-difluoromethoxy-1H-indazol-3-yl)-5H-pyrrolo[2,3-b]pyrazine-7-carboxylic acid tert-butylamide] | 5.98 nM
3 | Cn1nc(-c2cnc3[nH]cc(C(=O)NC4(CO)CCC4)c3n2)c2ccc(F)cc21 [Example I-256, 2-(6-Fluoro-1-methyl-1H-indazol-3-yl)-5H-pyrrolo[2,3-b]pyrazine-7-carboxylic acid (1-hydroxymethyl-cyclobutyl)-amide] | 23.5 nM
4 | Cn1nc(-c2cnc3[nH]cc(C(=O)NCC4CC4)c3n2)c2ccc(Cl)cc21 [Example I-317, 2-(6-Chloro-1-methyl-1H-indazol-3-yl)-5H-pyrrolo[2,3-b]pyrazine-7-carboxylic acid cyclopropylmethyl-amide] | 11.3 nM
5 | COC(=O)c1cnc([C@H](C)NC(=O)c2c[nH]c3ncc(-c4nn(C)c5cc(F)ccc45)nc23)[nH]1 [Example I-359, 2-((S)-1-{[2-(6-Fluoro-1-methyl-1H-indazol-3-yl)-5H-pyrrolo[2,3-b]pyrazine-7-carbonyl]-amino}-ethyl)-3H-imidazole-4-carboxylic acid methyl ester] | 112 nM
6 | CC(C)(C)NC(=O)c1c[nH]c2ncc(-n3ncc4ccc(F)cc43)nc12 [Example I-332, 2-(6-Fluoro-indazol-1-yl)-5H-pyrrolo[2,3-b]pyrazine-7-carboxylic acid tert-butylamide] | 107 nM
7 | Cc1ccc2c(cnn2-c2cnc3[nH]cc(C(=O)NC(C)(C)C)c3n2)c1 [Example I-333, 2-(5-Methyl-indazol-1-yl)-5H-pyrrolo[2,3-b]pyrazine-7-carboxylic acid tert-butylamide] | 63.9 nM
8 | CN1CCN(C(=O)Cn2nc(-c3cnc4[nH]cc(C(=O)NC(C)(C)C)c4n3)c3cc(OC(F)F)ccc32)CC1 [Example I-353, 2-{5-Difluoromethoxy-1-[2-(4-methyl-piperazin-1-yl)-2-oxo-ethyl]-1H-indazol-3-yl}-5H-pyrrolo[2,3-b]pyrazine-7-carboxylic acid tert-butylamide] | 56.3 nM
9 | Cc1ccc2c(-c3cnc4[nH]cc(C(=O)NC5(CO)CC5)c4n3)nn(C)c2c1 [Example I-429, 2-(1,6-Dimethyl-1H-indazol-3-yl)-5H-pyrrolo[2,3-b]pyrazine-7-carboxylic acid (1-hydroxymethyl-cyclopropyl)-amide] | 12.5 nM
10 | CN1CCC(n2nc(-c3cnc4[nH]cc(C(=O)NC(C)(C)C)c4n3)c3cc(OC(F)F)ccc32)CC1 [Example I-263, 2-[5-Difluoromethoxy-1-(1-methyl-piperidin-4-yl)-1H-indazol-3-yl]-5H-pyrrolo[2,3-b]pyrazine-7-carboxylic acid tert-butylamide] | 14.4 nM
11 | CC(C)(C)NC(=O)c1c[nH]c2ncc(-c3ncn4cc(Cl)ccc34)nc12 [Example I-356, 2-(6-Chloro-imidazo[1,5-a]pyridin-1-yl)-5H-pyrrolo[2,3-b]pyrazine-7-carboxylic acid tert-butylamide] | 8.92 nM
12 | CC(C)(C)NC(=O)c1c[nH]c2ncc(-c3nn(CCC4OCCCO4)c4ccc(OC(F)F)cc34)nc12 [Example I-297, 2-[5-Difluoromethoxy-1-(2-[1,3]dioxan-2-yl-ethyl)-1H-indazol-3-yl]-5H-pyrrolo[2,3-b]pyrazine-7-carboxylic acid tert-butylamide] | 28.1 nM
13 | Cn1nc(-c2cnc3[nH]cc(C(=O)NC4CCCC(NC(=O)OC(C)(C)C)C4)c3n2)c2ccc(Cl)cc21 (stereo not shown) [Example I-442, (3-{[2-(6-Chloro-1-methyl-1H-indazol-3-yl)-5H-pyrrolo[2,3-b]pyrazine-7-carbonyl]-amino}-cyclohexyl)-carbamic acid tert-butyl ester] | 879 nM
